Patent US6300350A, “Treatment of emphysema using RARy selective retinoid agonists” (priority 2000, dated 2001)
pEC50, pIC50: −log10 of the molar value.

How the values were obtained:
[1] = target: T1, RARα (Homo sapiens, UniProt P10276); test: Transactivation, RARα; assay type: cell-based; conditions: Table II
T1 sequence (P10276 1-462): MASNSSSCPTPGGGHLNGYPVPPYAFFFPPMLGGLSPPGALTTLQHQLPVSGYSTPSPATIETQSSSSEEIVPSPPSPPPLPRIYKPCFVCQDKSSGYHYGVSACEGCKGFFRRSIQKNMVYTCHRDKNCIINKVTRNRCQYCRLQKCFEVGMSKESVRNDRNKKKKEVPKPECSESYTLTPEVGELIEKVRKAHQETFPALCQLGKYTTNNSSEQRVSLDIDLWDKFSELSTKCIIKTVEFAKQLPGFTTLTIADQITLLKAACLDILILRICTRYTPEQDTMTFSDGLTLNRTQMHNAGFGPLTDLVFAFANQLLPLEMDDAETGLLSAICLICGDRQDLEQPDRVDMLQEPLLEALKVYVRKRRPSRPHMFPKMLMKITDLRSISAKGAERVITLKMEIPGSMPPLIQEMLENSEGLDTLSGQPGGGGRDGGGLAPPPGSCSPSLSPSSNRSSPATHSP
Text: (§1) As used herein, the term "transactivation" refers to the ability of a retinoid to activate the transcription of a gene where the gene transcription is initiated by the binding of a ligand to the particular retinoic acid receptor being tested, i.e., RARα, RARβ, or RARγ. Determining the ability of a compound to transactivate a retinoic acid receptor may be performed by methods known to those of skill in the art. […] Apfel etal., Proc. Nat.

[2] = target: T2, RARγ (Homo sapiens, UniProt P13631); test: Transactivation, RARγ; assay type: cell-based
T2 sequence (P13631 1-454): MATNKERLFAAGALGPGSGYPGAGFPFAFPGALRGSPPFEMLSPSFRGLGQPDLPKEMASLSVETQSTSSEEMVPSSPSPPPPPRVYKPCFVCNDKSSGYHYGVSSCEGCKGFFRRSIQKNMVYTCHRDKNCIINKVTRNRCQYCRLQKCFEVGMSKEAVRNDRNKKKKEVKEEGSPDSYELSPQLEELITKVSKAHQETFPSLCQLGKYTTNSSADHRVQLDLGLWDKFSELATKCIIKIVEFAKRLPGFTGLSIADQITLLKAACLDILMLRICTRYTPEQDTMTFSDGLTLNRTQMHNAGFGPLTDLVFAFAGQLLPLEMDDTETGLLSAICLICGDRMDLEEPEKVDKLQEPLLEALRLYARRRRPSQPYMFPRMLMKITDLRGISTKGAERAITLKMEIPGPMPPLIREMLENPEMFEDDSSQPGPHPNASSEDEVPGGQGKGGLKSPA
Text: as §1

[3] = target: T1, RARα; test: Binding, RARα (ligand binding assay); conditions: Table II
Text: The RARγ agonist selectivity of a compound can be determined by routine ligand binding assays known to one of skill in the art such as described in C. Apfel et al., Proc. Nat.

[4] = system: elastase damaged rats; test: Pulmonary gas exchange in elastase damaged rats; assay type: in vivo
Method: Pulmonary and arterial blood gases were determined in elastase damaged rats±retinoid treatment prior to termination of study. Rats were placed under deep anesthesia using pentobarbital (50 mg/kg, i.p. and a tracheal cannula (PE 240) was inserted. The rats were artificially ventilated (f=90, TV=approx 0.5 ml/100 g BW) using a small animal respiratory pump (Harvard). For each rat, the pump parameters were adjusted to establish an arterial CO2 level for the pulmonary artery (PCO2) of 30-35 torr. Arterial blood samples (approx 0.2 ml) were taken from the abdominal aorta (AO2) and immediately analyzed by pHOx blood gas. Data are presented as percent (%) recovery relative to elastase +vehicle treated rats.

CCCCCCc1cc2c(cc1/C=C/c1ccc(C(=O)O)cc1)C(C)(C)CCC2(C)C [RAR Agonist 3]
pEC50 [1]: 6.00
pEC50 ([2]; Table II): 7.82
pEC50 ([2]; Table III): 7.82
pIC50 [3]: 5.57
PCO2, recovery relative to elastase + vehicle treated rats ([4]; 0.01 mg/kg): 84.6%
PO2, recovery relative to elastase + vehicle treated rats ([4]; 0.01 mg/kg): 49.8%
AO2, recovery relative to elastase + vehicle treated rats ([4]; abdominal aorta, 0.01 mg/kg): 100%
gas exchange (in words) ([4]; elastase-damaged rats): more effective and more potent than the pan agonist (ATRA)
